According to PMC9929129, “Towards Translation of PqsR Inverse Agonists: From In Vitro Efficacy Optimization to In Vivo Proof‐of‐Principle” (Advanced Science, 2023):
Entries after “also recorded” stand apart in the source; their conditions may differ.

How the values were obtained:
P. aeruginosa PAO1 = assay: Biofilm-eradication assay with amikacin; format: cell-based, Pseudomonas aeruginosa; details: 10 × 10^−6 M 24 plus 4 µg/mL amikacin
Procedure: compound, 150 µL 1% DMSO in LB. The inoculator was wrapped with parafilm again and incubated for another 24 h. After that, the peg lid was transferred for 1 min to a 96-well plate containing 200 µL sterile MΩ in each well, followed by another 96 well plate containing 200 µL LB in each well. The system was sealed with parafilm and sonicated for 15 min in an ultrasonic bath with tray.
Immediately after sonication, 20 µL were removed from each well using a multi-channel pipette and diluted 1:10 (stepwise, until 10-6). After each dilution step, 10 µL were directly transferred to cetrimide agar plates (spot plating) using fresh pipette tips. Agar plates were incubated for 16 h at 37 °C and then used for cell counting. Statistical analysis was performed with GraphPad Prism 8.4.1 (GraphPad Software, San Diego, CA) using one-way ANOVA with Tukey’s multiple comparisons test.
Statistical outliers were determined using the Nalimov test, applying a 95% cut-off.
1.2.5 Biofilm-eradication assay
The assay was carried out as described in section 1.2.4, with the following modifications: In the first incubation step only QSI or DMSO (DMSO control and tobramycin control) were added to the wells at time 0. The well plate used for the second incubation step contained QSI/DMSO as before, in presence/absence of tobramycin/amikacin. […]

[1] = Plasma protein binding, murine (equilibrium dialysis); format: in vitro ADME, mouse
Procedure: (§1) 1.4.4 Pharmacokinetic and off-target functional assays (Cyprotex)
(§2) Compound 24 was assayed at Cyprotex in functional assays for interference with important off-targets as well as important pharmacokinetic parameters. With the exception of plasma protein binding, a dose-response relationship was studied in order to calculate IC50 values.
(§3) Table S10. Information on in vitro ADMET assays performed at Cyprotex. […]
Plasma protein binding assay (human and Equilibrium dialysis […]
(§4) An increase in the number of colonies of at least two-fold over baseline (mean + SD of the vehicle control) and a dose response indicate a positive response. An […]
(§5) different from the vehicle control.
(§6) Where indicated, S9 fraction from the livers of Aroclor 1254-treated rats were included in the incubation at a final concentration of 4.5%. A NADPH-regenerating system was also included to ensure a steady supply of reducing equivalents.

CYP3A4 = target: T1, CYP3A4 (Homo sapiens, UniProt P08684); assay: Cytochrome P450 inhibition assay, CYP3A4; format: in vitro ADME
T1 construct: Cyprotex
Procedure: as §1, §2, §3, §4, §5, §6

[2] = target: T2, NET human norepinephrine transporter (Homo sapiens, UniProt P23975); assay: NET functional antagonist uptake assay (Eurofins); format: cell-based
T2 construct: Eurofins 302000
Procedure: (§7) 1.4.2 Further functional off-target assays (Eurofins)
(§8) Table S8. Compound 24 was further tested in the following functional assays at Eurofins.
ASSAY NAME ESTIMATED IC50 [µM]
NET human norepinephrine transporter functional antagonist uptake >10 µM […]
(§9) FLIPR Assay expressed in HEK293 cells
(§10) GABAA α5/β3/γ2 ionotropic receptor (human GABRA5, GABRB3, >30
(§11) and GABRG2 genes, expressed in HEK293 cells

[3] = target: T3, HTR2B Human 5-Hydroxytryptamine GPCR (Homo sapiens, UniProt P41595); assay: HTR2B GPCR calcium assay, 86-0030P-2091AG; format: cell-based
T3 construct: 86-0030P-2091AN
Description: as §7, §8
ASSAY NAME ESTIMATED IC50 [µM] […]
as §9, §10, §11

[4] = target: T4, CFTR cystic fibrosis transmembrane conductance regulator (Homo sapiens, UniProt P13569); assay: Ion channel profiling at Charles River: CFTR; format: cell-based; details: expressed in CHO cells; read-out: ESTIMATED IC50
T4 construct: host or cells: CHO cells
Procedure: 1.4.3 Ion Channel Profiling at Charles River
Table S9. Compound 24 was tested against the following ion channels at Charles River Laboratories. […]
FASTPatch Assay IK (KCa3.1) calcium-activated potassium channel (human KCNN4 >30 gene) expressed in CHO cells […]
CFTR cystic fibrosis transmembrane conductance regulator (Cl-channel encoded by human CFTR gene) expressed in CHO cells >30 […]
as §9
GABAA α5/β3/γ2 ionotropic receptor (human GABRA5, GABRB3, >30 and GABRG2 genes, expressed in HEK293 cells

[5] = In vivo PK study, IP, SC and PO; details: male, CD-1, mouse, plasma, 20 mg/kg
Procedure: For pharmacokinetic experiments via the intraperitoneally (IP), subcutaneously (SC) and perorally
(PO) route 4 weeks old outbred male CD-1 mice (Charles River, Netherlands) were used.
were administered 24 at 20 mg/kg intraperitoneally (IP), subcutaneously (SC) and perorally (PO).
About 20 μL of whole blood was collected serially from the lateral tail vein at time points t = 0.25
(only IP and SC), 0.5, 1, 2, 4, and 8 h post administration.
was collected from the heart. Whole blood was collected into Eppendorf tubes coated with 0.5 M EDTA and immediately spun down at 13,000 rpm for 10 min at 4 °C. The plasma was transferred into
a new Eppendorf tube and then stored at −80 °C until analysis.

T1 sequence (P08684 whole entry): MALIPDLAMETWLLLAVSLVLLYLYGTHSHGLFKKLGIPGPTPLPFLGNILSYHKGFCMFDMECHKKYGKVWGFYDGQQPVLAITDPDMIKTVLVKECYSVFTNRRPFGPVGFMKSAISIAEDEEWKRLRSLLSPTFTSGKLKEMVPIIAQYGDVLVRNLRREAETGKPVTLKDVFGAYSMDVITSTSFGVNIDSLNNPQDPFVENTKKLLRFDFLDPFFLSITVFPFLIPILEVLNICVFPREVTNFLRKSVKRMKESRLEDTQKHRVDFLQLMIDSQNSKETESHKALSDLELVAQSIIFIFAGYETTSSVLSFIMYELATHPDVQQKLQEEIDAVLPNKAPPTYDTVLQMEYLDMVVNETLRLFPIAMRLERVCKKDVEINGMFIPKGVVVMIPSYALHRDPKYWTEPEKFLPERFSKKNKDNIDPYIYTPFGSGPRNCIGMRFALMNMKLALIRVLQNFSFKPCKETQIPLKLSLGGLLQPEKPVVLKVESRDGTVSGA
T3 sequence (P41595 whole entry): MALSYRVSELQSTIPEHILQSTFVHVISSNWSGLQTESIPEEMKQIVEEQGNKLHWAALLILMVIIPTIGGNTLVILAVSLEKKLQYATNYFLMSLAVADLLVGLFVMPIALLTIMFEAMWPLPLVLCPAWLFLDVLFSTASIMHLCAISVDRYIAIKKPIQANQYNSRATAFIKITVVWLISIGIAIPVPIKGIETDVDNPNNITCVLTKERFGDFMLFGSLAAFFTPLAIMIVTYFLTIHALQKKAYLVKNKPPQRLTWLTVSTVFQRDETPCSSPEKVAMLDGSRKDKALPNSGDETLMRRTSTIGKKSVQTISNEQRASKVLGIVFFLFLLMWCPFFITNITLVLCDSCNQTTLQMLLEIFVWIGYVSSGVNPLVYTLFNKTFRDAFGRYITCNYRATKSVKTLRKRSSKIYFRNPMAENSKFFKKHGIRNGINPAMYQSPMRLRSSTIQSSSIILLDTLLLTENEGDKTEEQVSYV
T4 sequence (P13569 whole entry): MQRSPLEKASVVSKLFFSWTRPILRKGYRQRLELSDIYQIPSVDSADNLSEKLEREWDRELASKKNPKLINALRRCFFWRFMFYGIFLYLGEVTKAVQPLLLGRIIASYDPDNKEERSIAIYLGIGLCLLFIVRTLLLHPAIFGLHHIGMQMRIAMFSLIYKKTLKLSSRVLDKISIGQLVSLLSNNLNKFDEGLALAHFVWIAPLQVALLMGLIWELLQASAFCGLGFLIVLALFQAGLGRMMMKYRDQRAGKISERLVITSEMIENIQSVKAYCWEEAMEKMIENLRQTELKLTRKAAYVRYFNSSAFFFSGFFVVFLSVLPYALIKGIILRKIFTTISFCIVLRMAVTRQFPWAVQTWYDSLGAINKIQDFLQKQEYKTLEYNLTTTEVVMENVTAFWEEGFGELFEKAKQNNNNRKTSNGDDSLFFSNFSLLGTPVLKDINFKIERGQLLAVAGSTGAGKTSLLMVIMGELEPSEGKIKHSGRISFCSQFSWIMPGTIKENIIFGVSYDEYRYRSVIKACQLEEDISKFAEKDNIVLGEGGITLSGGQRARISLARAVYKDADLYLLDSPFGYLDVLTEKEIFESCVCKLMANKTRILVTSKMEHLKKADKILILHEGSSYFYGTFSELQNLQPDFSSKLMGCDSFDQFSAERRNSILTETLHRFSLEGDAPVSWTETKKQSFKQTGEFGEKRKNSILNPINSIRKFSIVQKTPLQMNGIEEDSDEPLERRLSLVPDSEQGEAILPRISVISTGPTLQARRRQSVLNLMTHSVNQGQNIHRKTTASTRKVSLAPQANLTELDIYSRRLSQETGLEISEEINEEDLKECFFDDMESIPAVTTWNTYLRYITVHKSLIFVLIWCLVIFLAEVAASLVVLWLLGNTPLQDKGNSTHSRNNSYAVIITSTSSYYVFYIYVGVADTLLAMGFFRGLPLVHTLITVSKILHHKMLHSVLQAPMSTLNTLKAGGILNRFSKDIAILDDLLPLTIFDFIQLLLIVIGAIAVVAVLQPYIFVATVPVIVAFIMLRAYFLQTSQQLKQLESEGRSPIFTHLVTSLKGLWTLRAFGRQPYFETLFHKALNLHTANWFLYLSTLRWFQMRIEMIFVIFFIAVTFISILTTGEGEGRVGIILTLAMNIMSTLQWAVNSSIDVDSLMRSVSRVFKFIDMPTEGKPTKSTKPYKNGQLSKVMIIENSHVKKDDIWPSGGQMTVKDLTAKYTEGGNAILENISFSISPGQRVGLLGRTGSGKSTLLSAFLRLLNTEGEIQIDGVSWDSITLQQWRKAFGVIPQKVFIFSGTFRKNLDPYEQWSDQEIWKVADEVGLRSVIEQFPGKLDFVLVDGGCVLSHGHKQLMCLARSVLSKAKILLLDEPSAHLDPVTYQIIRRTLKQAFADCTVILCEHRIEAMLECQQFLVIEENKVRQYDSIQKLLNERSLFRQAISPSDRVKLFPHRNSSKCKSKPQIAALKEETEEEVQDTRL
T2 sequence (P23975 whole entry): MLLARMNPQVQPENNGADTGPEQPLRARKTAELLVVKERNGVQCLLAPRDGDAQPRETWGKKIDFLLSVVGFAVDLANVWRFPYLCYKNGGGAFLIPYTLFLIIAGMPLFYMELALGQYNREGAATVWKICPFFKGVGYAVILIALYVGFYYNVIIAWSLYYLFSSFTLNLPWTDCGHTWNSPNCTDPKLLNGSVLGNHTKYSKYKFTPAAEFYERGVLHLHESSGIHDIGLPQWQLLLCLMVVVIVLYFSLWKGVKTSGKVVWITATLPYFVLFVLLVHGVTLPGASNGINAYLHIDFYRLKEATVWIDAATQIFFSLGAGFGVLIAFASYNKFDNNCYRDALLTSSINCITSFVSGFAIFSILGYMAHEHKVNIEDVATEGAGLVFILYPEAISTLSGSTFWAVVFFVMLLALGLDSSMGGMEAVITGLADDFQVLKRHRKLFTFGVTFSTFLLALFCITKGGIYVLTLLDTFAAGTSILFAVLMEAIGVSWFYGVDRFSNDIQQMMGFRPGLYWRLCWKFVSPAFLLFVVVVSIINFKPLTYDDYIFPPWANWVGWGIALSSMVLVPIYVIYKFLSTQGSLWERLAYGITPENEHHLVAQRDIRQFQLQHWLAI

**Q.** With `CC(C)Oc1ccc(-c2ncc(CNc3ccnc(C(F)(F)F)c3)cn2)cc1Cl` [Compound 24] as the compound, how does the “Effect on amikacin activity against PAO1 biofilm” value (P. aeruginosa PAO1) read?
**A.** The value was “significant boost in activity; also recorded: boosted”.

**Q.** What about the Plasma binding murine [1] of the same compound?
**A.** The Plasma binding murine was >99%.

**Q.** What about the IC50 (CYP3A4; Metabolic activity, activation observed) of the same compound?
**A.** Its IC50 is > 25 µM.

**Q.** What about the CYP3A4 activation (CYP3A4; at 10 × 10^−6 M) of the same compound?
**A.** Its CYP3A4 activation is > 50%.

**Q.** And the IC50 [2]?
**A.** Its IC50 is > 10 µM.

**Q.** And the IC50 [3]?
**A.** Its IC50 is > 10 µM.

**Q.** And the IC50 [4]?
**A.** Its IC50 is > 30 µM.

**Q.** And the bioavailability ([5]; intraperitoneal)?
**A.** The bioavailability was ~36%.

**Q.** And the AUC(0-t) ([5]; ip)?
**A.** Its AUC(0-t) is 557 µg·h/mL.

**Q.** And the CL/F ([5]; ip)?
**A.** The CL/F was 0.102 ± 0.108 L/h/kg.

**Q.** What about the Cmax ([5]; ip) of the same compound?
**A.** The Cmax was 65.8 µg/mL.

**Q.** And the Tmax ([5]; ip)?
**A.** The Tmax was 1 h.

**Q.** And the Vd/F ([5]; ip)?
**A.** The Vd/F was 0.25 ± 0.3 L/kg.

**Q.** And the bioavailability ([5]; ip)?
**A.** Its bioavailability is 36.1%.

**Q.** And the half-life ([5]; ip)?
**A.** The half-life was 1.68 h.

**Q.** What about the CL/F ([5]; po) of the same compound?
**A.** The CL/F was 0.0948 ± 0.024 L/h/kg.

**Q.** What about the Cmax ([5]; po) of the same compound?
**A.** The Cmax was 45.6 µg/mL.

**Q.** And the Tmax ([5]; po)?
**A.** The Tmax was 0.83 ± 0.2 h.

**Q.** What about the Vd/F ([5]; po) of the same compound?
**A.** The Vd/F was 0.25 L/kg.

**Q.** What about the bioavailability ([5]; po) of the same compound?
**A.** Its bioavailability is 13.8%.

**Q.** And the half-life ([5]; po)?
**A.** The half-life was 1.9 ± 0.5 h.

**Q.** And the AUC(0-t) ([5]; sc)?
**A.** Its AUC(0-t) is 363 µg·h/mL.

**Q.** What about the CL/F ([5]; sc) of the same compound?
**A.** The CL/F was 0.0558 ± 0.006 L/h/kg.

**Q.** And the Tmax ([5]; sc)?
**A.** The Tmax was 2 h.

**Q.** What about the Vd/F ([5]; sc) of the same compound?
**A.** Its Vd/F is 0.12 L/kg.

**Q.** And the bioavailability ([5]; sc)?
**A.** The bioavailability was 23.5%.

**Q.** And the half-life ([5]; sc)?
**A.** Its half-life is 1.51 h.
